In ChEMBL document CHEMBL4699661, “Synthesis and Biological Characterization of Cyclic Disulfide-Containing Peptide Analogs of the Multifunctional Opioid/Neuropeptide FF Receptor Agonists That Produce Long-Lasting and Nontolerant Antinociception” (J Med Chem, 2020):
Calls of active or inactive are those of the source. No cut-off for these calls is given here. Non-standard residues stand in square brackets, D forms with d. Residues, ends and D or L forms follow the SMILES beside them.

Assays:
[1] = tested on: Mus musculus; test: Analgesic activity in icv dosed Kunming mouse by radiant heat tail flick test; type: functional
[2] = tested on: Mus musculus; test: Analgesic activity in sc dosed Kunming mouse dosed once daily for 8 consecutive days by radiant heat tail flick test; type: functional, organism-based; details: time 8.0 day
[3] = tested on: Mus musculus; test: Analgesic activity in sc dosed Kunming mouse by radiant heat tail flick test; type: functional
[4] = tested on: Mus musculus; test: Analgesic activity in Kunming mouse assessed as increase in antinociceptive effect at 0.03 pmol, icv pre-treated with 10 nmol, icv NPFF receptor antagonist RF9 by radiant heat tail flick test; type: functional, organism-based
[5] = target: T1, Delta-type opioid receptor (Homo sapiens, UniProt P41143); test: Agonist activity at delta opioid receptor (unknown origin) expressed in HEK293-A cells assessed as inhibition of forskolin-stimulated cAMP accumulation incubated for 30 mins by competition PKA binding assay; type: functional, cell-based
[6] = target: T2, Neuropeptide FF receptor 1 (Homo sapiens, UniProt Q9GZQ6); test: Agonist activity at NPFFR1 (unknown origin) expressed in HEK293-A cells assessed as inhibition of forskolin-stimulated cAMP accumulation incubated for 30 mins by competition PKA binding assay; type: functional, cell-based
[7] = tested on: Mus musculus; test: Analgesic activity in sc dosed Kunming mouse pre-treated with 5 nmol, icv peripherally restricted opioid receptor antagonist naloxone methiodide by radiant heat tail flick test; type: functional, organism-based
[8] = Half life in 100% mouse plasma at 0.01 mM by RP-HPLC analysis; type: ADME, cell-free
[9] = tested on: Mus musculus; test: Analgesic activity in sc dosed Kunming mouse pre-treated with 1 mg/kg, sc peripherally restricted opioid receptor antagonist naloxone methiodide by radiant heat tail flick test; type: functional, organism-based
[10] = target: T1, Delta-type opioid receptor; test: Agonist activity at delta opioid receptor (unknown origin) expressed in HEK293-A cells assessed as inhibition of forskolin-stimulated cAMP accumulation incubated for 30 mins by competition PKA binding assay relative to control; type: functional, cell-based
[11] = tested on: Mus musculus; test: Analgesic activity in sc dosed Kunming mouse assessed as time duration during which antinociception lasted by radiant heat tail flick test; type: functional
[12] = tested on: Mus musculus; test: Analgesic activity in sc dosed Kunming mouse pre-treated with 1 mg/kg, sc opioid receptor antagonist naloxone by radiant heat tail flick test; type: functional, organism-based
[13] = target: Kappa-type opioid receptor (Homo sapiens, UniProt P41145); test: Agonist activity at kappa opioid receptor (unknown origin) expressed in HEK293-A cells assessed as inhibition of forskolin-stimulated cAMP accumulation incubated for 30 mins by competition PKA binding assay; type: functional, cell-based; details: read-out: EC50
[14] = target: T3, Neuropeptide FF receptor 2 (Homo sapiens, UniProt Q9Y5X5); test: Agonist activity at NPFFR2 (unknown origin) expressed in HEK293-A cells assessed as inhibition of forskolin-stimulated cAMP accumulation incubated for 30 mins by competition PKA binding assay relative to control; type: functional, cell-based; details: filed as agonist
[15] = target: T2, Neuropeptide FF receptor 1; test: Agonist activity at NPFFR1 (unknown origin) expressed in HEK293-A cells assessed as inhibition of forskolin-stimulated cAMP accumulation incubated for 30 mins by competition PKA binding assay relative to control; type: functional, cell-based; details: filed as agonist
[16] = target: T3, Neuropeptide FF receptor 2; test: Agonist activity at NPFFR2 (unknown origin) expressed in HEK293-A cells assessed as inhibition of forskolin-stimulated cAMP accumulation incubated for 30 mins by competition PKA binding assay; type: functional, cell-based
[17] = target: Mu-type opioid receptor (Homo sapiens, UniProt P35372); test: Agonist activity at mu opioid receptor (unknown origin) expressed in HEK293-A cells assessed as inhibition of forskolin-stimulated cAMP accumulation incubated for 30 mins by competition PKA binding assay; type: functional, cell-based
[18] = tested on: Mus musculus; test: Analgesic activity in NPFF2 -/- C57BL/6 mouse at 0.89 umol/kg, sc by radiant heat tail flick test relative to wild type mouse; type: functional, organism-based; details: dose 0.89 µmol/kg
[19] = tested on: Mus musculus; test: Analgesic activity in Kunming mouse at 8.94 umol/kg, sc pre-treated with 1 mg/kg, sc opioid receptor antagonist naloxone by radiant heat tail flick test; type: functional, organism-based; details: dose 8.94 µmol/kg
[20] = tested on: Mus musculus; test: Analgesic activity in Kunming mouse at 2.68 umol/kg, sc pre-treated with 1 mg/kg, sc opioid receptor antagonist naloxone by radiant heat tail flick test; type: functional, organism-based; details: dose 2.68 µmol/kg
[21] = tested on: Mus musculus; test: Analgesic activity in Kunming mouse at 8.94 umol/kg, sc pre-treated with 5 nmol, icv peripherally restricted opioid receptor antagonist naloxone methiodide by radiant heat tail flick test; type: functional, organism-based; details: dose 8.94 µmol/kg
[22] = tested on: Mus musculus; test: Analgesic activity in NPFF2 -/- C57BL/6 mouse at 0.09 umol/kg, sc by radiant heat tail flick test relative to wild type mouse; type: functional, organism-based; details: dose 0.09 µmol/kg
[23] = tested on: Mus musculus; test: Analgesic activity in Kunming mouse at 2.68 umol/kg, sc pre-treated with 5 nmol, icv peripherally restricted opioid receptor antagonist naloxone methiodide by radiant heat tail flick test; type: functional, organism-based; details: dose 2.68 µmol/kg
[24] = tested on: Mus musculus; test: Analgesic activity in Kunming mouse at 8.94 umol/kg, sc pre-treated with 1 mg/kg, sc peripherally restricted opioid receptor antagonist naloxone methiodide by radiant heat tail flick test; type: functional, organism-based; details: dose 8.94 µmol/kg
[25] = tested on: Mus musculus; test: Analgesic activity in icv dosed Kunming mouse assessed as time duration during which supraspinal antinociception lasted by radiant heat tail flick test; type: functional
[26] = tested on: Mus musculus; test: Analgesic activity in Kunming mouse at 2.68 umol/kg, sc pre-treated with 1 mg/kg, sc peripherally restricted opioid receptor antagonist naloxone methiodide by radiant heat tail flick test; type: functional, organism-based; details: dose 2.68 µmol/kg
[27] = Half life in 15% mouse brain at 0.01 mM by RP-HPLC analysis; type: ADME, tissue-based
[28] = tested on: Mus musculus; test: Analgesic activity in icv dosed Kunming mouse dosed once daily for 8 consecutive days by radiant heat tail flick test; type: functional, organism-based; details: time 8.0 day

| SMILES | ED50 [1] | Activity [2] | ED50 [3] | Activity [4] | EC50 [5] | EC50 [6] | half-life at 10 µM [8] | Time [11] | EC50 [13] | Emax [14] | Emax [15] | EC50 [16] | EC50 [17] | Emax ([10]; filed as agonist) | Time [25] | further results |
| --- | --- | --- | --- | --- | --- | --- | --- | --- | --- | --- | --- | --- | --- | --- | --- | --- |
| C[C@@H](NC(=O)[C@@H](N)Cc1ccc(O)cc1)C(=O)NCC(=O)N[C@@H](Cc1ccccc1)C(=O)N[C@@H](CCC(N)=O)C(=O)N1CCC[C@H]1C(=O)N[C@@H](CCC(N)=O)C(=O)N[C@@H](CCCNC(=N)N)C(=O)N[C@@H](Cc1ccccc1)C(N)=O (H-Y[dA]GFQPQRF-NH2) | 390 pmol | Active | 1.37 µmol/kg | Active | – | – | – | – | – | – | – | – | – | – | – | – |
| N=C(N)NCCC[C@H](NC(=O)[C@H](CCC(N)=O)NC(=O)[C@@H]1CCCN1C(=O)[C@H](CS)NC(=O)[C@H](Cc1ccccc1)NC(=O)CNC(=O)[C@H](CS)NC(=O)[C@@H](N)Cc1ccc(O)cc1)C(=O)N[C@@H](Cc1ccccc1)C(N)=O | 150 pmol | Active | 0.24 µmol/kg | Active | 218 nM | 24.9 nM | 29.6 min | 1.5 h | 184 nM | 62.9% | 79.7% | 752 nM | 1550 nM | – | – | Activity [7]: Active; Activity [9]: inactive; Emax [10]: 35.8%; Activity [12]: inactive |
| N=C(N)NCCC[C@H](NC(=O)[C@H](CCC(N)=O)NC(=O)[C@@H]1CCCN1C(=O)[C@H](CS)NC(=O)[C@H](Cc1ccccc1)NC(=O)CNC(=O)[C@@H](CS)NC(=O)[C@@H](N)Cc1ccc(O)cc1)C(=O)N[C@@H](Cc1ccccc1)C(N)=O | 0.6 pmol | Active | 0.13 µmol/kg | Active | 514 nM | 17.5 nM | 27.9 min | 3 h | 581 nM | 46.6% | 78.5% | 532 nM | 221 nM | 46.1% | 3 h | Activity [18]: Active; Activity [19]: inactive; Activity [20]: inactive; Activity [21]: Active; Activity [22]: Active; Activity [23]: Active; Activity [24]: inactive; Activity [26]: inactive |
| N=C(N)NCCC[C@H](NC(=O)[C@H](CCC(N)=O)NC(=O)[C@@H]1CCCN1C(=O)[C@@H](CS)NC(=O)[C@H](Cc1ccccc1)NC(=O)CNC(=O)[C@@H](CS)NC(=O)[C@@H](N)Cc1ccc(O)cc1)C(=O)N[C@@H](Cc1ccccc1)C(N)=O | 1.13 pmol | Active | 0.06 µmol/kg | Active | 219 nM | 788 nM | 30.9 min | 3 h | 2300 nM | 58.4% | 85.7% | 719 nM | 171 nM | 58.3% | 3 h | – |
| N=C(N)NCCC[C@H](NC(=O)[C@H](CCC(N)=O)NC(=O)[C@@H]1CCCN1C(=O)[C@H]1CSSC[C@H](NC(=O)[C@@H](N)Cc2ccc(O)cc2)C(=O)NCC(=O)N[C@@H](Cc2ccccc2)C(=O)N1)C(=O)N[C@@H](Cc1ccccc1)C(N)=O | 0.21 pmol | Active | 0.003 µmol/kg | Active | 490 nM | 354 nM | 17 min | 4 h | 743 nM | 61.6% | 82.8% | 168 nM | 3830 nM | 60.3% | 3 h | half-life at 10 µM [27]: 229 min; Activity [28]: Active |
